Earlier results as cited in paper PMC8459971, “Evaluation of the hepatotoxicity of the novel GPR40 (FFAR1) agonist CPL207280 in the rat and monkey” (PLoS ONE, 2021).

Details: phase III studies, within six months; cited from earlier work

SMILES: Cc1cc(OCCCS(C)(=O)=O)cc(C)c1-c1cccc(COc2ccc3c(c2)OC[C@H]3CC(=O)O)c1 [TAK-875, fasiglifam, reference compound]
- study participants with serum ALT elevations > 3 × ULN: 2.7%
